This passage reports IC50 and Ki results from ChEMBL document CHEMBL4402560, “Sarco/Endoplasmic Reticulum Calcium ATPase Inhibitors: Beyond Anticancer Perspective” (J Med Chem, 2020).

Structures are written as SMILES.

For test [1], the target named is T1, Sarcoplasmic/endoplasmic reticulum calcium ATPase 1 (Oryctolagus cuniculus, UniProt P04191). As to the kind of experiment: Inhibition of rabbit skeletal muscle microsomes SERCA1a incubated for 10 mins by enzyme-coupled method.
For test [2], the target named is T1, Sarcoplasmic/endoplasmic reticulum calcium ATPase 1. As to the kind of experiment: Inhibition of rabbit SERCA1b expressed in COS7 cells microsomal membranes preincubated for 10 mins followed by addition of ATP and measured after 40 mins by ELISA method. In kind it is cell-based. In general terms: An ELISA detects its analyte on a solid surface through an enzyme-linked reagent.

Test [3] concerns the target T2, Sarcoplasmic/endoplasmic reticulum calcium ATPase 2 (Homo sapiens, UniProt P16615). As to the kind of experiment: Inhibition of human SERCA2b expressed in COS7 cells microsomal membranes preincubated for 10 mins followed by addition of ATP and measured after 40 mins by ELISA method. The test is classed as cell-based.
The nature of test [4]: Inhibition of SERCA (unknown origin). Also on record: species or system Homo sapiens.
Test [5] addresses T3, Sarcoplasmic/endoplasmic reticulum calcium ATPase 3 (Homo sapiens, UniProt Q93084). Put plainly: Inhibition of human SERCA3a expressed in COS7 cells microsomal membranes preincubated for 10 mins followed by addition of ATP and measured after 40 mins by ELISA method. In kind it is cell-based.
The target in test [6] is T1, Sarcoplasmic/endoplasmic reticulum calcium ATPase 1. Put plainly: Inhibition of rabbit skeletal muscle microsomes SERCA1a preincubated for 10 mins followed by addition of ATP and measured after 40 mins.
The target is the same in test [7]. Put plainly: Inhibition of rabbit skeletal muscle microsomes SERCA1a.
Test [8] has the same target. Put plainly: Inhibition of rabbit microsomes SERCA1a by enzyme-coupled method.
Test [9] in a line: Inhibition of fish liver microsomes SERCA by enzyme-coupled method. Also on record: species or system Squalius cephalus. (Microsomes from liver hold many membrane-bound enzymes, among them those of drug oxidation.)
In test [10] the target is T1, Sarcoplasmic/endoplasmic reticulum calcium ATPase 1. Put plainly: Inhibition of rabbit skeletal muscle microsomes SERCA1a by enzyme-coupled method.
The nature of test [11]: Inhibition of porcine cerebellar microsomes SERCA2b by enzyme-coupled method. Also on record: species or system Sus scrofa domesticus, Cerebellum.
For test [12], the target named is T1, Sarcoplasmic/endoplasmic reticulum calcium ATPase 1. As to the kind of experiment: Inhibition of SERCA1 in rabbit skeletal muscle microsomes assessed as decrease in NADH absorbance by NADH-coupled enzyme assay. Also on record: species or system Muscle tissue.
A further test has as its system BJ. Put plainly: Antiproliferative activity against human BJ cells. The test is classed as functional, cell-based.
A further test deals with MIA PaCa-2. As to the kind of experiment: Antiproliferative activity against human MIAPaCa2 cells. In kind it is functional, cell-based.
A further test deals with MRC5. As to the kind of experiment: Antiproliferative activity against human MRC5 cells. The test is classed as functional, cell-based.
The target of test [13] is T2, Sarcoplasmic/endoplasmic reticulum calcium ATPase 2. As to the kind of experiment: Inhibition of SERCA2b in human platelet microsomes by enzyme-coupled method.
Test [14] deals with T3, Sarcoplasmic/endoplasmic reticulum calcium ATPase 3. As to the kind of experiment: Inhibition of SERCA3 in human platelet microsomes by enzyme-coupled method.
Test [15] can be described thus: Inhibition of porcine cardiac microsomes SERCA2a by enzyme-coupled method. Further details: species or system Sus scrofa domesticus, Heart.
In test [16] the target is T2, Sarcoplasmic/endoplasmic reticulum calcium ATPase 2. As to the kind of experiment: Inhibition of SERCA2a (unknown origin).

T1 sequence (P04191 whole entry): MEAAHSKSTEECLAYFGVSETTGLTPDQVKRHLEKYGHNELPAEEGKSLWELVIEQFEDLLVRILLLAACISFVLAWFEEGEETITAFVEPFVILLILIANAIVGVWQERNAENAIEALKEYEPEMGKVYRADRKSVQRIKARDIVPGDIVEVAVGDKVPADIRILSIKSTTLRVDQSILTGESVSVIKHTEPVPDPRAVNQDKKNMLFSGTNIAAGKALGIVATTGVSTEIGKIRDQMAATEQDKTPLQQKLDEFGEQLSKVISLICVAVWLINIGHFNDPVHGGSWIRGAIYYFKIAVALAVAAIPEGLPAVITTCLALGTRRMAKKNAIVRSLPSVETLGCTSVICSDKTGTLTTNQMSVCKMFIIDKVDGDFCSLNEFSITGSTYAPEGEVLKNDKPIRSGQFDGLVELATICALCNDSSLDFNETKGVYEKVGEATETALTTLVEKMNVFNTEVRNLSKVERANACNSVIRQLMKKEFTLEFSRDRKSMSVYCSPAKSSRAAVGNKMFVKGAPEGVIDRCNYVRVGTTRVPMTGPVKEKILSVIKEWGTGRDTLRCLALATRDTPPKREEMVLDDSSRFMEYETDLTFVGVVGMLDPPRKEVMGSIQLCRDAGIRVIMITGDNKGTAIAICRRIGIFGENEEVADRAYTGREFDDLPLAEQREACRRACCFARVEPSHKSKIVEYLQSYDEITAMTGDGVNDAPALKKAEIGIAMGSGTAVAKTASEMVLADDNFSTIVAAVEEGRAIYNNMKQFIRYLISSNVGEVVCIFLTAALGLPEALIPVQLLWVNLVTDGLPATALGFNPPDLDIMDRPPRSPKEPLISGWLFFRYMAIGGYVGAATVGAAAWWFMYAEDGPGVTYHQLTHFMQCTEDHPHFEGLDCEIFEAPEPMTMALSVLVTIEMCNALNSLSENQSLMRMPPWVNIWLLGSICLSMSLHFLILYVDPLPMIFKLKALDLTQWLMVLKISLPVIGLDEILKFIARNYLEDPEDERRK
T2 sequence (P16615 whole entry): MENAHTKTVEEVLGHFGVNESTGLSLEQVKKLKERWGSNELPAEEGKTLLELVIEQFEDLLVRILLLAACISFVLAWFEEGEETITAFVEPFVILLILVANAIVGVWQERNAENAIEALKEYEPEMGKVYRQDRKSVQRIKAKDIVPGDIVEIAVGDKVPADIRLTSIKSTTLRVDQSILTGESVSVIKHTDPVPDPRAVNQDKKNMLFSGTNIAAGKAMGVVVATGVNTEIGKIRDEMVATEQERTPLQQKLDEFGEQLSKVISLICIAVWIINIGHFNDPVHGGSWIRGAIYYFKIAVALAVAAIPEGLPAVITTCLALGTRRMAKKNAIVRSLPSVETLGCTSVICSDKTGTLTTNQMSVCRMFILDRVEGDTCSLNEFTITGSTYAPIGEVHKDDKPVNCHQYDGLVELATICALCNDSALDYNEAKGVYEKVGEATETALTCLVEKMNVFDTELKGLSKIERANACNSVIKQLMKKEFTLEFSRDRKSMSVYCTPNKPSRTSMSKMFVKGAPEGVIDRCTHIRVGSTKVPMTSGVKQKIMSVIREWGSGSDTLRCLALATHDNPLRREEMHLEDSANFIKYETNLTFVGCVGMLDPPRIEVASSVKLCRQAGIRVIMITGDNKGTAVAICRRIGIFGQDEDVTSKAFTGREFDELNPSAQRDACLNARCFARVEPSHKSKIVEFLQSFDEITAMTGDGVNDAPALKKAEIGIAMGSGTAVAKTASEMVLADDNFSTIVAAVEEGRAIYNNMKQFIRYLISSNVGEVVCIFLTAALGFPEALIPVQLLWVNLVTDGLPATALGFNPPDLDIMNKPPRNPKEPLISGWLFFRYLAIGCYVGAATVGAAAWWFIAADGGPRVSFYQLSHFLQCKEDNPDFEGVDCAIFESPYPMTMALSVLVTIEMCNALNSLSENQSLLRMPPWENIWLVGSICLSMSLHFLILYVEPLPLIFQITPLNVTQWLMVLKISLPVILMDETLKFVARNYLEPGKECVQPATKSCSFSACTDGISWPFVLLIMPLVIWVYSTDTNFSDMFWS
T3 sequence (Q93084 whole entry): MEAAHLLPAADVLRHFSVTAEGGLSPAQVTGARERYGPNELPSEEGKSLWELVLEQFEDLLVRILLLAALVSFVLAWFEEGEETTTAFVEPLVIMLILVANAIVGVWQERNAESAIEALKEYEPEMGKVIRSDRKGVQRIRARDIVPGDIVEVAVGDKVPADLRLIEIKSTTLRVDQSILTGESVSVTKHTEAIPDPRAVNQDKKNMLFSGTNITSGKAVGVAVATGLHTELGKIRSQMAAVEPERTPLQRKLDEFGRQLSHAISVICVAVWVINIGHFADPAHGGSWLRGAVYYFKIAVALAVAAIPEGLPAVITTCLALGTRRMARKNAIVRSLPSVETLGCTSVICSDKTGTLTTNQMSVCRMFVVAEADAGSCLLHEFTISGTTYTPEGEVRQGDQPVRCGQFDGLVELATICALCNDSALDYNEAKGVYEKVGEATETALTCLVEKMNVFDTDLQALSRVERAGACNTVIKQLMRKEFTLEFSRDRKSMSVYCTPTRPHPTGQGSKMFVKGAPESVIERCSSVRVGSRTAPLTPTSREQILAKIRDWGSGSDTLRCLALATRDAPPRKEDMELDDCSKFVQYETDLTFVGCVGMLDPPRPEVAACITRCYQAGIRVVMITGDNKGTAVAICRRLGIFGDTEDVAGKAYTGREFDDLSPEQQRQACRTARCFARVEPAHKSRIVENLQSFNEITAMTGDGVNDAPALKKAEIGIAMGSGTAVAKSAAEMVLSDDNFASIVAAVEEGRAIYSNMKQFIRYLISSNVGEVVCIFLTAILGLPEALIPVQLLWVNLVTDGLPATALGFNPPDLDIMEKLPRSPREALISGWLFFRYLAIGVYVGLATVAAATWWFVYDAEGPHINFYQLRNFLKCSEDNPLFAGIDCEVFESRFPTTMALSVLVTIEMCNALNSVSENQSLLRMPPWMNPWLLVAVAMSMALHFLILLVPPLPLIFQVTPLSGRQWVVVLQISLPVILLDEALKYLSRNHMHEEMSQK

As a reminder, the IC50 is the midpoint of a concentration-inhibition curve. For the compound `CN(C)CCCN1c2ccccc2Sc2ccc(Cl)cc21` [CHLORPROMAZINE], in test [1], the IC50 is 23 µM.
On to `CC(C)(C)c1cc(O)c(C(C)(C)C)cc1O`, for which the 50% inhibitory concentration (IC50) in [2] is 2 to 7 µM; in [3], 2 to 7 µM; in test [4], 0.4 µM; in test [5], 2 to 7 µM.
Take `O=c1c(O)c(-c2ccc(O)c(O)c2)oc2cc(O)cc(O)c12` [QUERCETIN]: the concentration for half-maximal inhibition (IC50) in test [6] was 9 µM.
Turning to `Cc1ccc(-c2cc(C(F)(F)F)nn2-c2ccc(S(N)(=O)=O)cc2)c(C)c1`, the IC50 in test [7] came out at 30 µM.
`CN1CCN(CCCN2c3ccccc3Sc3ccc(C(F)(F)F)cc32)CC1` [TRIFLUOPERAZINE]: the IC50 in test [1] is 45 µM.
A word on the Ki: it is the equilibrium dissociation constant of an inhibitor or competing ligand from its target. Consider `C/C=C(/C)C(=O)O[C@H]1C(C)=C2[C@H]([C@@H]1OC(=O)CCCCCCC)[C@](C)(OC(C)=O)C[C@H](OC(=O)CCC)[C@@]1(O)[C@H]2OC(=O)[C@@]1(C)O`, for which the inhibition constant (Ki) in [7] worked out at 0.011 µM. In addition, the IC50 in [2], in test [3] and in [5] was 0.21 to 12 µM throughout.
With `O=c1c(O)c(-c2ccccc2)oc2cc(O)cc(O)c12` [GALANGIN], the IC50 in test [6] was found to be 9 µM.
Consider `CC/C(=C(/CC)c1ccc(O)cc1)c1ccc(O)cc1` [DIETHYLSTILBESTROL], for which the IC50 in [8] is 14 to 20 µM; in test [9], 7 to 20 µM; in test [4], 15 µM.
With `CC(C)(c1cc(Br)c(O)c(Br)c1)c1cc(Br)c(O)c(Br)c1`, the IC50 in [10] and in [11] was 0.5 to 2.3 µM throughout.
In the case of `C[C@H](C[C@H](O)[C@H]1OC1(C)C)C1=C2C[C@H](O)[C@H]3[C@@]4(C)CCC(=O)C(C)(C)[C@@H]4CC[C@]3(C)[C@@]2(C)CC1` [ALISOL B], the half-inhibitory concentration (IC50) is 27 to 53 µM in test [10] and 27 µM in [11].
With `CCCCC/C=C\C/C=C\CCCCCCCC(=O)O[C@@H]1[C@@H](O)[C@@H](O)[C@H](OC[C@H]2O[C@@H](Oc3c(-c4ccc(O)c(O)c4)oc4cc(O)cc(O)c4c3=O)[C@H](O)[C@@H](O)[C@@H]2O)O[C@H]1C`, in test [12], the 50% inhibitory concentration (IC50) worked out at 28 µM.
In the case of `CCOC(=O)CC1C(C(=O)OCC)=C(N)Oc2ccc(-c3ccccc3)cc21` (stereo unspecified), the IC50 in test [10] and in [11] was 23 µM throughout.
As to `CC[C@H](C)[C@H](N)C(=O)N[C@@H](CC(N)=O)C(=O)N[C@@H](CC(C)C)C(=O)N[C@@H](CCCCN)C(=O)N[C@@H](C)C(=O)N[C@@H](CC(C)C)C(=O)N[C@@H](C)C(=O)N[C@@H](C)C(=O)N[C@@H](CC(C)C)C(=O)N[C@@H](C)C(=O)N[C@@H](CCCCN)C(=O)N[C@@H](CCCCN)C(=O)N[C@H](C(=O)N[C@@H](CC(C)C)C(=O)O)[C@@H](C)CC`, the Ki in test [10] was 1 µM.
On to `CC[C@H](C)[C@H](NC(=O)[C@H](CCCCN)NC(=O)[C@H](CCCCN)NC(=O)[C@H](C)NC(=O)[C@H](CC(C)C)NC(=O)[C@H](C)NC(=O)[C@H](C)NC(=O)[C@H](CC(C)C)NC(=O)[C@H](C)NC(=O)[C@H](CCCCN)NC(=O)[C@H](CC(C)C)NC(=O)[C@H](CC(N)=O)NC(=O)[C@@H](NC(=O)[C@H](Cc1ccc(O)cc1)NC(=O)[C@H](CCCNC(=N)N)NC(=O)[C@@H]1CCCN1C(=O)[C@H](CCCNC(=N)N)NC(=O)[C@H](CC(N)=O)NC(=O)[C@H](CCC(N)=O)NC(=O)[C@H](Cc1ccccc1)NC(=O)[C@@H](Cc1ccc(O)cc1)N(C)C(=O)Cc1ccccc1)[C@@H](C)CC)C(=O)N[C@@H](CC(C)C)C(N)=O`, for which, in test [7], the concentration for half-maximal inhibition (IC50) worked out at 0.61 µM.
`C/C=C(/C)C(=O)O[C@@H]1C[C@H]2C(=C1C)[C@@H]1OC(=O)[C@@](C)(O)[C@@]1(O)[C@@H](OC(=O)CCCCn1cc([C@]3(O)CC[C@H]4[C@@H]5CCc6cc(OC)ccc6[C@H]5CC[C@@]43C)nn1)C[C@]2(C)OC(C)=O`: the half-maximal inhibitory concentration (IC50) with BJ was 17 µM; with MIA PaCa-2, over 50 µM; with MRC5, 10.1 µM.
Take `OCCN1CCN(CCCN2c3ccccc3Sc3ccc(C(F)(F)F)cc32)CC1` [FLUPHENAZINE]: the IC50 in test [1] came out at 15 µM.
Regarding `O=c1c(O)c(-c2ccccc2)oc2ccc(O)cc12`, the IC50 in test [6] worked out at 6 µM.
Regarding `CC[C@H](C)[C@H](NC(=O)CCCCCNC(=O)[C@H](Cc1ccc(O)cc1)NC(=O)[C@H](CCCNC(=N)N)NC(=O)[C@@H]1CCCN1C(=O)[C@H](CCCNC(=N)N)NC(=O)[C@H](CC(N)=O)NC(=O)[C@H](CCC(N)=O)NC(=O)[C@@H](Cc1ccc(O)cc1)N(C)C(=O)Cc1ccccc1)C(=O)N[C@@H](CC(N)=O)C(=O)N[C@@H](CC(C)C)C(=O)N[C@@H](CCCCN)C(=O)N[C@@H](C)C(=O)N[C@@H](CC(C)C)C(=O)N[C@@H](C)C(=O)N[C@@H](C)C(=O)N[C@@H](CC(C)C)C(=O)N[C@@H](C)C(=O)N[C@@H](CCCCN)C(=O)N[C@@H](CCCCN)C(=O)N[C@H](C(=O)N[C@@H](CC(C)C)C(N)=O)[C@@H](C)CC`, the half-inhibitory concentration (IC50) in [7] lay in the range of 0.27 to 0.3 µM.
As for `CCCCC/C=C\C/C=C\C/C=C\C/C=C\CCCC(=O)O[C@@H]1[C@@H](O)[C@@H](O)[C@H](OC[C@H]2O[C@@H](Oc3c(-c4ccc(O)c(O)c4)oc4cc(O)cc(O)c4c3=O)[C@H](O)[C@@H](O)[C@@H]2O)O[C@H]1C`, the concentration for half-maximal inhibition (IC50) in [12] was determined as 23 µM.
`O=C(O[C@@H]1Cc2c(O)cc(O)cc2O[C@@H]1c1cc(O)c(O)c(O)c1)c1cc(O)c(O)c(O)c1` [EPIGALOCATECHIN GALLATE]: in test [7], the half-inhibitory concentration (IC50) is 12 µM.
For `CCCCCCCCCCCCCCCCCC(=O)O[C@@H]1[C@@H](O)[C@@H](O)[C@H](OC[C@H]2O[C@@H](Oc3c(-c4ccc(O)c(O)c4)oc4cc(O)cc(O)c4c3=O)[C@H](O)[C@@H](O)[C@@H]2O)O[C@H]1C`, in test [12], the half-maximal inhibitory concentration (IC50) was 35 µM.
In the case of `CC(C)(O)[C@H]1O[C@H]2CC[C@@]3(C)[C@@](O)(CC[C@H]4Cc5c([nH]c6ccccc56)[C@@]43C)C2=CC1=O` [PAXILLINE], the IC50 in test [13], in test [14], in [10], in test [11] and in test [15] was 5 µM in each case.
For `CCOC(=O)CC1C(C(=O)OCC)=C(N)Oc2ccc(-c3cc(OC)cc(OC)c3)cc21` (stereo unspecified), the half-inhibitory concentration (IC50) in test [7] came out at 13.5 µM.
On to `C/C=C(/C)C(=O)O[C@@H]1C[C@H]2C(=C1C)[C@@H]1OC(=O)[C@@](C)(O)[C@@]1(O)[C@@H](OC(=O)CCCCn1cc([C@]3(O)CC[C@H]4[C@@H]5CCC6=CC(O)CC[C@]6(C)[C@H]5CC[C@@]43C)nn1)C[C@]2(C)OC(C)=O` (stereo partly specified), for which the half-maximal inhibitory concentration (IC50) with BJ is 13.7 to 50 µM; in the test with MIA PaCa-2, 13.7 to 50 µM; with MRC5 it was over 50 µM.
As to `C/C=C/C/C(C)=C\[C@H]1C/C=C/C=C/C[C@H](C)/C=C(\C)[C@@H](OC)C/C=C/[C@@H](O)CC(=O)O1`, the inhibition constant (Ki) worked out at 0.027 µM in test [16] and 0.017 µM in test [7].
For `C/C(O)=C1\C(=O)[C@@H]2[C@H]3c4c[nH]c5cccc(c45)C[C@H]3C(C)(C)N2C1=O`, the IC50 in test [2], in [3] and in [5] was 0.09 to 2.5 µM throughout.
Take `C/C=C/C/C(C)=C\[C@@H]1OC(=O)C[C@H](O[C@@H]2O[C@H](CO)[C@@H](O)[C@H](OC)[C@H]2O)/C=C/C[C@H](OC)/C(C)=C/[C@@H](C)C[C@H]2C=C[C@H]1OO2`: the inhibitory constant (Ki) amounted to 0.0013 µM in [16] and 0.018 µM in test [7].
Regarding `C/C=C/C/C(C)=C\[C@H]1C/C=C/C=C/C[C@H](C)/C=C(\C)[C@@H](OC)C/C=C/[C@@H](O[C@@H]2O[C@H](CO)[C@@H](O)[C@H](OC)[C@H]2O)CC(=O)O1`, the Ki in [16] stood at 0.011 µM.
